According to patent US8178133B2, “Magnesium compositions and uses thereof” (Magceutics, Inc., priority 2007, dated 2012):

Key:
[1] = tested on: young and aging/aged rats; test: Elevated T-maze test, spatial working memory; assay type: in vivo, Sprague Dawley (SD) rats; settings: MgCl2 diet
Method: Twenty 2-month old, male Sprague Dawley (SD) rats were housed in a temperature-controlled room (22° C. to 25° C.) with a dark period from 08:00 pm to 08:00 am daily. […] Over 7 days before the training and trial period began, each rat was handled and habituated to the maze and to Kellogg's Froot Loop cereal.
Each rat underwent a test of one trial, followed by an interval of 10-minutes, followed by another trial, and so on, for a total of 6 trials in one day. In each trial, each rat went through a sample run in the maze, followed by an interval of 15 seconds, followed by a choice run in the maze. In the sample run, the subject rat was forced to go to the left or to the right by the presence of a block, according to a pseudorandom sequence (with an equal number of left turns and right turns, and no more than two consecutive turns in the same direction). As a reward, Froot Loop cereal was available in the food well at the end of the run, regardless of the direction that was taken by virtue of the block. In the choice run, the block that had been present in the preceding sample run was removed, and the rat was allowed to choose to go to the left or to the right. […]
Three groups of animals (young, aging, and magnesium-treated aging rats) were used. […] Spatial working memory was assessed using a T-maze non-matching-to-place task. […] Spatial working memory was first assessed on an elevated T-maze. […]

[2] = tested on: aging rats; test: Novel object recognition test in rats; assay type: in vivo, Sprague-Dawley rats
[3] = tested on: mice genetically altered to present symptoms of Alzheimer's disease (AD); test: Modified Morris water maze test in AD mice; assay type: in vivo; settings: AD mice aged 13 months
Method: Another group, the control group, of 10 mice that were genetically altered to present symptoms of AD were fed a Control Diet, a diet of normal solid food and water, for 30 days.
The pool used was a pool of water in a circular metal tank (150 cm in diameter and 50 cm in depth) having a water height of 30 cm and a water temperature that was maintained at ˜22° C. The pool was placed in a moderately lit area and surrounded by a black curtain. An acrylic platform (15 cm in diameter) was placed 2 cm below the surface of the water in the middle of one quadrant of the pool, equidistant from the center and the edge of the pool. Outside the pool, a cue was placed so as to be visible to a mouse in the maze, allowing a mouse to use it as a landmark for spatial orientation. The cue remained unchanged throughout the test period.
On the first day of the training and testing period, the water in the pool was transparent, such that the platform was visible. Each mouse was trained to swim towards the platform and to stand on the platform so as not to be submerged in the pool. […] The amount of time the mouse took to find the platform, referred to as “escape latency,” was recorded for each trial.
On the second day of the training and testing period, a small quantity of milk was added to the water in the pool, such that the pool was opaque and the platform was no longer visible. […]

[4] = tested on: young (9-month old) and aged (25-month old) rats; settings: food containing 2% magnesium oxide for 8 days; cited from earlier work

## [Cl-].[Cl-].[Mg+2] [MgCl2]
[1]; 2 and 5 min delays
  spatial working memory, choice accuracy with increased delay: significantly enhanced the performance of the aging rats
[1]; 15 sec delay
  percentage of correct choices, learning of non-matching-to-place task: performed significantly better from their first trials
[2]; aging rats 12-14 months, 6 mg/kg MgCl2 from 8 months of age, single training, 10 minute retention interval
  novel object exploration preference: preferentially explored the novel object to the same extent as young rats
[2]; aging rats, single training, 24 hours retention interval
  novel object exploration preference: lose there ability to distinguish novel versus familiar objects
[2]; aging rats, two training sessions (spaced training), 24-hour retention interval
  novel object exploration preference: retained a high level of preference

## COc1cc2c(cc1OC)C(=O)C(CC1CCN(Cc3ccccc3)CC1)C2 (centres unmarked) [aricept]
[3]
  effect on learning capacity, comparison with anti-AD drugs: both being better at reducing the effects of AD on learning capacity than aricept

## [O]=[Mg] [magnesium oxide]
[4]
  cognitive function: some sign of improvement of cognitive function

## CC12CC3CC(C)(C1)CC(N)(C3)C2 [memantine]
[3]
  effect on learning capacity, comparison with anti-AD drugs: better at reducing the effects of AD on learning capacity than aricept
